Test results: ChEMBL document CHEMBL3286145, “Evaluation of the antiprion activity of 6-aminophenanthridines and related heterocycles” (Eur J Med Chem, 2014)
Active and inactive are the calls of the source. The rule behind the calls is not given here.

Experiments:
Saccharomyces cerevisiae [1] = experiment: Antiprion activity against yeast STRg6 prion protein [PSI+] at 50 nmole by colorimetric assay
Saccharomyces cerevisiae [2] = experiment: Antiprion activity against yeast SB34 prion protein [URE3] at 50 nmole by colorimetric assay

Structure (SMILES)	antiprion activity (active/not active) (Saccharomyces cerevisiae [1])	antiprion activity (active/not active) (Saccharomyces cerevisiae [2])
Nc1nc2ccccc2c2ccc(C(F)(F)F)cc12	Active	Active
COc1cc(OC)c2nc(N)c3ccccc3c2c1	Active	inactive
Cc1ccc2c(N)nc3ccccc3c2n1	inactive	inactive
Cc1ccc2c(N)nc3ccccc3c2c1	Active	Active
Nc1nc2ncccc2c2ccccc12	inactive	inactive
Nc1nc2ccccc2c2ccccc12	Active	Active
COc1ccc(CCNc2nc3ccccc3c3ccccc23)cc1OC	inactive	inactive
Nc1nc2ccccc2c2cnccc12	inactive	inactive
Cc1ccc2nc(N)c3ccccc3c2c1	Active	inactive
Nc1nc2ccc(OC(F)(F)F)cc2c2ccccc12	Active	inactive
CC[C@H](CO)Nc1nc2ccccc2c2ccccc12	inactive	inactive
Nc1ccc2c(c1)c(N)nc1ccccc12	Active	inactive
Nc1nc2ccccc2c2ccc(F)cc12	Active	Active
CN[S+]([O-])c1ccc2c(N)nc3ccccc3c2c1 (stereo not given)	inactive	inactive
Nc1nc2cccnc2c2ccccc12	inactive	inactive
Nc1cccc2c1c(N)nc1ccccc12	Active	Active
Nc1nc2ccncc2c2ccccc12	inactive	inactive
Nc1nc2ccccc2c2cccc(F)c12	Active	Active
Nc1nc2ccccc2c2ccc([N+](=O)[O-])cc12	Active	Active
[N-]=[N+]=Nc1ccc2c(c1)c(N)nc1ccccc12	Active	Active
Nc1nc2ccccc2c2cccc([N+](=O)[O-])c12	Active	Active
Nc1nc2ccccc2c2cc([N+](=O)[O-])ccc12	Active	inactive
Nc1nc2ccccc2c2cc(F)ccc12	Active	Active
Nc1nc2ccccc2c2c1CC=CC2	Active	Active
Nc1nc2ccccc2c2c1CCCC2	Active	Active
